Where “and” joins values, the source holds several entries; their conditions need not be identical. Identical values can stand only once.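 Interpolation was linear, between the two tested concentrations surrounding the appropriate level; five concentrations were tested over 48 hours in 96-well plates. GI50 marks 50% less growth. Definition used: TGI = concentration required for complete inhibition of growth.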
What was measured:
Test in all cases: DTP human tumour cell line panel, 48 h
SK-MEL-2 melanoma = system: SK-MEL-2 melanoma
NCI-H226 lung = system: NCI-H226 lung
NCI-H460 lung = system: NCI-H460 lung
SNB-78 CNS = system: SNB-78 CNS
IGROV1 ovarian = system: IGROV1 ovarian
SF-295 CNS = system: SF-295 CNS
NCI/ADR-RES ovarian = system: NCI/ADR-RES ovarian
MDA-MB-435 = system: MDA-MB-435
T-47D breast = system: T-47D breast
DMS 114 small cell lung = system: DMS 114 small cell lung

Structure (SMILES)	TGI (SK-MEL-2 melanoma)	TGI (NCI-H226 lung) [µM]	TGI (NCI-H460 lung) [µM]	TGI (SNB-78 CNS) [µM]	TGI (IGROV1 ovarian)	TGI (SF-295 CNS)	TGI (NCI/ADR-RES ovarian)	TGI (MDA-MB-435)	TGI (T-47D breast)	GI50 (SK-MEL-2 melanoma)	GI50 (NCI-H226 lung) [µM]	GI50 (NCI-H460 lung) [µM]	GI50 (NCI/ADR-RES ovarian)	GI50 (IGROV1 ovarian)	GI50 (SF-295 CNS)	GI50 (MDA-MB-435)	GI50 (T-47D breast)	TGI (DMS 114 small cell lung) [µM]
COc1cc2c(cc1OC(=O)CC(C)O)C1C(OC2=O)C(OC(C)=O)C=C2CCN(C)[C@H]21 (stereo partly drawn)	41.5 µM	65.9	> 100	68.8	70.4 µM	49.9 µM	–	–	–	–	–	–	–	–	–	–	–	–
CC(=O)NC1=C(OS(=O)(=O)c2ccc(C)cc2)CN(C)C1=O	9.63 µM	62.7	7.77	–	12.1 µM	13.9 µM	44.9 µM	16.7 µM	9.35 µM	–	–	–	–	–	–	–	–	–
CCCn1c(C)nc2c1C(=O)c1ccccc1C2=O	> 100 µM	> 100	57.3	–	42.1 µM	41.6 µM	> 100 µM	32.9 µM	> 100 µM	59.4 µM	57.3	20.4	22.9 µM	14.5 µM	13 µM	17.2 µM	35.1 µM	–
C=CCOC1OC(CO[Si](C)(C)C(C)(C)C)C(OCc2ccccc2)C(OCc2ccccc2)C1OCc1ccccc1 (stereo not drawn)	> 100 µM	> 100	> 100	–	> 100 µM	54.9 µM	> 100 µM	> 100 µM	> 100 µM	–	–	–	–	–	–	–	–	–
O=C(O)C1(P(=O)(O)O)CC1	> 100 µM	–	> 100	> 100	> 100 µM	> 100 µM	–	–	–	–	–	–	–	–	–	–	–	> 100
C=CC(=O)N1CCN(c2ccc3cccc(NC(=O)c4cnc(C)cn4)c3n2)CC1	27.8 µM	22.3	19.7	–	15.2 µM	> 100 µM	> 100 µM	32.9 µM	> 100 µM	3.37 µM	4.44	2.51	3.19 µM	1.29 µM	13.5 µM	3.67 µM	3.48 µM	–
O=C(C1CCCCC1)[C@@H]1[C@]2(C(=O)NC3CCCCC32)[C@@H]2CCCN2[C@@]12C(=O)NC1CCC(Cl)CC12 (stereo partly drawn)	321 µM	411	308	–	202 µM	299 µM	310 µM	245 µM	279 µM	147 µM	179	134	127 µM	53.2 µM	149 µM	112 µM	107 µM	–
Cc1ccc(C(=O)Nc2ccc(CN3CCN(C)CC3)c(C(F)(F)F)c2)cc1C#Cc1cnc2cccnn12	0.579 µM and 1.43 µM	4.41	4.07	–	1.28 µM and 1.81 µM	1.75 µM and 4.27 µM	2.15 µM and 4.54 µM	1.23 µM and 3.62 µM	2.07 µM and 4.37 µM	0.217 µM and 0.492 µM	0.298	0.763	0.387 µM and 1.03 µM	0.272 µM and 0.269 µM	0.327 µM and 1.26 µM	0.26 µM and 0.753 µM	0.54 µM and 1.68 µM	–
O=C1C(=O)N(c2ccc(Cl)c(Cl)c2)C(=O)C(=O)C1c1nc2ccccc2s1	> 100 µM	> 100	–	> 100	> 100 µM	> 100 µM	–	–	–	–	–	–	–	–	–	–	–	> 100
C[C@]12CC[C@H]3[C@@H](CCC4=CC(=O)CC[C@@H]43)[C@@H]1CC[C@@H]2OC(=O)CCc1ccccc1	> 100 µM	34	35.6	–	42 µM	30.6 µM	40.9 µM	> 80.2 µM	66.6 µM	41 µM	16.5	17.1	19.1 µM	20.5 µM	15.5 µM	24.5 µM	21.8 µM	–
Cc1c(C#N)c(=O)[nH]c(=O)n1CCN1CCN(C(=O)NCCCCCCNC(=O)N2CCN(CCn3c(C)c(C#N)c(=O)[nH]c3=O)CC2)CC1	–	–	> 100	> 100	> 100 µM	> 100 µM	–	–	–	–	–	–	–	–	–	–	–	> 100
COc1ccc(-c2n[nH]nc2-c2cc(OC)c3c(c2OC)OCO3)cc1	11.4 µM	> 92.6	15.9	–	> 68 µM	5.67 µM	–	0.761 µM	> 100 µM	0.596 µM	9.69	0.409	0.368 µM	0.885 µM	0.658 µM	0.227 µM	1.73 µM	–
COc1cccc(NC(=O)c2sc3nc4c(cc3c2N)CN(Cc2ccccc2)CC4)c1	44.5 µM	38.3	30.9	–	> 100 µM	19.4 µM	33.3 µM	11 µM	47.3 µM	10.3 µM	6.03	4.18	2.4 µM	18.5 µM	3.05 µM	0.296 µM	4.62 µM	–
Cc1cc2c3ccc(C)[n+](C)c3ccc2n1C	25 µM	49.8	28.8	–	65.3 µM	15.6 µM	> 100 µM	21.9 µM	49 µM	7.56 µM	12.9	3.9	> 100 µM	3.14 µM	2.34 µM	5.12 µM	4.76 µM	–
C/C(=N\Nc1ccc2ccccc2n1)c1ccccn1	9.01 µM	2.12	3.71	–	0.979 µM	0.636 µM	7.19 µM	8.09 µM	3.2 µM	0.263 µM	0.134	< 0.0507	0.0653 µM	–	–	0.223 µM	< 0.0332 µM	–
CN(C)c1nc(=Nc2ccc3ccccc3c2)ss1	> 100 µM	> 100	> 100	> 100	> 100 µM	–	–	–	–	–	–	–	–	–	–	–	–	41.3
O=C(c1ccccc1)C(CN1CCOCC1)c1ccccc1 (stereo not drawn)	3.39 µM	9.33	7.76	–	4.24 µM	10.4 µM	14.1 µM	3.36 µM	9.87 µM	1.67 µM	2.79	2.51	2.83 µM	1.75 µM	2.67 µM	1.35 µM	3 µM	–
COc1ccc(OC)c(NC(=O)CCC/C(CC(=O)c2ccc(O)c(OC)c2)=N\NC(=O)C[N+](C)(C)C)c1	> 100 µM	> 100	> 100	–	> 100 µM	> 100 µM	–	–	–	–	–	–	–	–	–	–	–	> 100

From PubChem BioAssay (NCI)
